Literature values in patent US20030035827A1, “Pharmaceutical compositions containing substrates of enabling enzymes to preferentially deliver drugs away from PBVC or GIC systems” (priority 2001, published 2003).
Where two headings read alike, the source gives them in different places.

Target: pseudocholinesterase, plasma cholinesterase or butyrocholinesterase (PCE) (Homo sapiens, UniProt P06276)
[1] = substrate of PCE, previous experiments
[2] = substrate of PCE, previous experiments, read-out: Km

Sequence of pseudocholinesterase, plasma cholinesterase or butyrocholinesterase (PCE) (P06276 29-602): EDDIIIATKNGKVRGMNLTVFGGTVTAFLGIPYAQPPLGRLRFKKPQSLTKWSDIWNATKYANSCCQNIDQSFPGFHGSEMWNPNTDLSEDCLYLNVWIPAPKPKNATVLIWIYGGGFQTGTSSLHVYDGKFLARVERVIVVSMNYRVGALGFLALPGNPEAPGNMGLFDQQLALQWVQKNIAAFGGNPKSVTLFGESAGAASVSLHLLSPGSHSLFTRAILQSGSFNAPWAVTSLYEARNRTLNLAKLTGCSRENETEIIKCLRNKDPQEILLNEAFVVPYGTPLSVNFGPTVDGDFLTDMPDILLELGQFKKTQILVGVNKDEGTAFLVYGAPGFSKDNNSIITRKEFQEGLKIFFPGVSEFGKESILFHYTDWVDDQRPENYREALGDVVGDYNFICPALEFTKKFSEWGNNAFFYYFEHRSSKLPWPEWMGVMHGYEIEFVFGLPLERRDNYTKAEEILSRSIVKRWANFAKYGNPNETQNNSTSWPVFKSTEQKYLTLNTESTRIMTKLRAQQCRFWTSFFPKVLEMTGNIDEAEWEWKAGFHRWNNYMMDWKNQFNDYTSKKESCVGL

## CC(=O)OCC[N+](C)(C)C [Acetylcholine]
[1]
  Km: 9,000 uM

## CC(=O)Oc1ccccc1C(=O)O [Aspirin]
[1]
  Kcat: 7,200/min.
  Km: 1,600 uM

## C[N+](C)(C)CCOC(=O)c1ccccc1 [Benzoylcholine]
[1]
  Kcat: 15,000/min.
[2]
  Km: 22 µM

## CCCC(=O)OCC[N+](C)(C)C [Butyrylcholine]
[1]
  Kcat: 80,000/min.
[2]
  Km: 1700 µM

## CCCC(=O)SCC[N+](C)(C)C [Butyrylthiocholine]
[1]
  Kcat: 30,000/min.

## CCCCCCC(=O)OCC[N+](C)(C)C [Hepanoylcholine]
  Kcat: 35,000/min.
read-out: Km
  Km: 1110 µM

## CC(=O)Oc1ccc2c3c1O[C@H]1[C@@H](OC(C)=O)C=C[C@H]4[C@@H](C2)N(C)CC[C@@]341 [Heroin]
  Km: 450 µM
[1]
  Kcat: 500 min⁻¹

## CCCCCC(=O)OCC[N+](C)(C)C [Hexanoylcholine]
read-out: Km
  Km: 820 µM
[1]
  Kcat: 36,000/min.

## CCCC(=O)Oc1ccccc1[N+](=O)[O-] [O-Nitrophenylbutyrate]
  Kcat: 48,000/min.
read-out: Km
  Km: 400 µM

## CCCCC(=O)OCC[N+](C)(C)C [Pentanoylcholine]
read-out: Km
  Km: 1500 µM
[1]
  Kcat: 63,000/min.

## CCN(CC)CCOC(=O)c1ccc(N)cc1 [Procaine]
  Km: 100 µM
[1]
  Kcat: 255 min⁻¹

## CCC(=O)OCC[N+](C)(C)C [Propionylcholine]
[1]
  Kcat: 55,000/min.
[2]
  Km: 3100 µM

## CCCCNc1ccc(C(=O)OCCN(C)C)cc1 [Tetracaine]
[1]
  Kcat: 74 min⁻¹
  Km: 8 µM

## Succinyldithiocholine
[1]
  Kcat: 600 min⁻¹
[2]
  Km: 1080 µM
